Data from US7598258B2, “Quinoline derivatives and quinazoline derivatives inhibiting autophosphorylation of macrophage colony stimulating factor receptor” (Kirin Beer Kabushiki Kaisha, priority 2002, dated 2009).

Each compound was assayed against T1, mouse c-fms (Mus musculus, UniProt P09581) (assay: Inhibition of c-fms autophosphorylation in macrophage-like cell line BAC-1.2F5 by M-CSF stimulation (ELISA)). Conditions: BAC-1.2F5 cells, human recombinant M-CSF 50 ng/ml, read-out: c-fms autophosphorylation 50% inhibitory concentration (IC50).
T1 construct: Macrophage-like cell line BAC-1.2F5 which expresses c-fms as a M-CSF receptor on cell membranes; endogenous in cells; host or cells: BAC-1.2F5 mouse macrophage-like cell line
T1 sequence (P09581 20-977): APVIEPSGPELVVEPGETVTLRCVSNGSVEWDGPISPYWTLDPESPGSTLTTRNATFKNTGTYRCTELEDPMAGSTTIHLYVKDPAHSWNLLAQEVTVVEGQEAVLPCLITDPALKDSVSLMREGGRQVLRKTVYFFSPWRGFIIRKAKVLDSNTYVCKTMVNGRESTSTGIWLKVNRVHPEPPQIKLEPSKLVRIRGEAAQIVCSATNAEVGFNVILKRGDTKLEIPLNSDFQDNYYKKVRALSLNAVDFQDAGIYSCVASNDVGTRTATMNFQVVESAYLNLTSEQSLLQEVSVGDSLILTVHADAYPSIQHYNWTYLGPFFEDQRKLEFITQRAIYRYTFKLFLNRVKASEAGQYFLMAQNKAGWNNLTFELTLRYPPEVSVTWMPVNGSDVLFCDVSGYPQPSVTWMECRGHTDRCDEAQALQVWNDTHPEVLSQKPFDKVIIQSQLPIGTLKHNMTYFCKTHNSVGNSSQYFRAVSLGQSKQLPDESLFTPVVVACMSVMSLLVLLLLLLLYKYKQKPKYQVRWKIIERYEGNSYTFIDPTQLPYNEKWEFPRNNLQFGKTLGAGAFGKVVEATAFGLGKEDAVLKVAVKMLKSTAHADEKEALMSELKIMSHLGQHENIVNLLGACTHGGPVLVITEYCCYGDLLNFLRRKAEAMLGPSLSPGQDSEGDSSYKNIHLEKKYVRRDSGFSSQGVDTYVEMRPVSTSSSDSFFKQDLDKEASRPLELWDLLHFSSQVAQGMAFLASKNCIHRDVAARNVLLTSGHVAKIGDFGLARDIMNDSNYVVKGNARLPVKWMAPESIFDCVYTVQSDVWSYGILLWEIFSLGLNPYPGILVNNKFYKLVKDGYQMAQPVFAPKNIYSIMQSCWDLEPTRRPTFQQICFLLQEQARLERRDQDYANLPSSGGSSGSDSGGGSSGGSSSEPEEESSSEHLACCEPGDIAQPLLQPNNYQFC
Type: cell-based
Protocol: Macrophage-like cell line BAC-1.2F5 which expresses c-fms as a M-CSF receptor on cell membranes (CLAUDIA M. et al., J. Cell. Physiol., 130, 420-427 (1987), “Isolation and Characterization of a Cloned Growth Factor Dependent Macrophage Cell Line, BAC1.2F5”) was cultured at 37° C. in a DMEM medium containing L-cell supernatant and 10% fetal calf serum (GIBCO BRL) in a 5% CO2 incubator until about 50 to 70% confluent. The harvested cells were inoculated into wells, each containing the same medium, in a collagen type I coat 96-well flat-bottom plate in an amount of 5.0×10^4 per well, and cultured at 37° C. for 12 hr. Thereafter, the medium was replaced with a DMEM medium containing a 0.1% fetal calf serum and cultured for 12 hr. Thereafter, a test compound dissolved in dimethyl sulfoxide was added to each well, and cells were incubated at 37° C. for one hr. Human recombinant M-CSF was added to a final concentration of 50 ng/ml, and cells were stimulated at 37° C. for 6 min. After the medium was removed, 50 μl of a solubilization buffer (20 mM HEPES (pH 7.4), 150 mM NaCl, 0.2% Triton X-100, 10% glycerol, 5 mM sodium orthovanadylate, 5 mM disodium ethylenediaminetetraacetate, and 2 mM Na4P2O7) was added thereto. The mixture was shaken at 4° C. for 2 hr to prepare a cell extract as an assay sample which was then used for an ELISA assay.
The plate for the ELISA assay was prepared as follows. Phosphate buffered saline (50 μl, pH 7.4) containing 5 μg/ml of anti-phospho-tyrosine antibody (PY20; Transduction Laboratories) was added to a microplate for ELISA (Maxisorp; purchased from NUNC), followed by standing at 4° C. overnight to be immobilized on the wells. Thereafter, each well was washed twice with 200 μl of a Ca- and Mg-free phosphate buffer containing 0.1% Tween-20 (hereinafter referred to as “PBS-T”), and 200 μl of a blocking solution (Dainippon Pharmaceutical Co. Ltd.: BlockAce) was added to each well, and the wells were then allowed to stand at room temperature for 2 hr for blocking.
Separately, phosphate buffered saline (50 μl, pH 7.4) containing 5 μg/ml of anti-phospho-tyrosine antibody (PY20; Transduction Laboratories) was added to a microplate for ELISA (Maxisorp; purchased from NUNC), followed by standing at 4° C. overnight to form a solid phase on the wells. After washing of the plate, 300 μl of a blocking solution was added, followed by standing at room temperature for 2 hr to perform blocking. After washing, the whole quantity of the cell extract was transferred to the wells, and the plate was then allowed to stand at 4° C. overnight. After washing, anti-c-fms antiserum (Upstate Biotechnology, Inc.) was allowed to react at room temperature for one hr, and, after washing, a peroxidase-labeled anti-rabbit Ig antibody (Amersham) was allowed to react at room temperature for one hr. After washing, a chromophoric substrate for peroxidase (Sumitomo Bakelite Co., Ltd.) was added thereto to initiate a reaction. After a suitable level of color development, a reaction termination solution was added to stop the reaction, and the absorbance at 450 nm was measured with a microplate reader. The c-fms phosphorylation activity for each well was determined by presuming the absorbance without the addition of the test compound and with the addition of M-CSF to be 100% c-fms phosphorylation activity and the absorbance without the addition of the test compound and M-CSF to be 0% c-fms phosphorylation activity. The concentration of the test compound was varied on several levels, the c-fms phosphorylation inhibitory rate was determined for each case, and the concentration of the test compound necessary for inhibiting 50% of c-fms phosphorylation (IC50) was calculated.

SMILES	IC50 [nM]
COc1cc2nccc(Oc3ccc(NC(=O)N[C@H](C)c4ccccc4OC)cc3)c2cc1OC [Example 52, N-{4-[(6,7-Dimethoxy-4-quinolyl)oxy]phenyl}-N′-[(1R)-1-(2-methoxyphenyl)ethyl]urea]	5.5
COc1cc2nccc(Oc3ccc(NC(=O)NC(C)c4ccc(F)cc4)cc3Cl)c2cc1OC (centres unmarked) [Example 10, N-{3-Chloro-4-[(6,7-dimethoxy-4-quinolyl)oxy]phenyl}-N′-[1-(4-fluorophenyl)ethyl]urea]	7.1
COc1cc2c(Oc3ccc(NC(=O)NC(C)c4ccc(F)c(F)c4)c(F)c3)ccnc2cc1OCCCN1CCOCC1 (centres unmarked) [Example 68, N-[1-(3,4-Difluorophenyl)ethyl]-N′-(2-fluoro-4-{[6-methoxy-7-(3-morpholinopropoxy)-4-quinolyl]oxy}phenyl)urea]	9.8
COc1cc2nccc(Oc3ccc(NC(=O)NC(C)c4nccs4)cc3OC)c2cc1OC (centres unmarked) [Example 80, N-{4-[(6,7-Dimethoxy-4-quinolyl)oxy]-3-methoxyphenyl}-N′-[1-(1,3-thiazol-2-yl)ethyl]urea]	6.2
COc1cc2nccc(Oc3ccc(NC(=O)N[C@@H](C)c4ccc(F)cc4)c(C)c3C)c2cc1OC [Example 26, N-{4-[(6,7-Dimethoxy-4-quinolyl)oxy]-2,3-dimethylphenyl}-N′-[(1S)-1-(4-fluorophenyl)ethyl]urea]	16.3
COc1cc2nccc(Oc3ccc(NC(=O)NC(C)c4nc(C)cs4)cc3F)c2cc1OC (centres unmarked) [Example 89, N-{4-[(6,7-Dimethoxy-4-quinolyl)oxy]-3-fluorophenyl}-N′-[1-(4-methyl-1,3-thiazol-2-yl)ethyl]urea]	3.1
COc1cc2nccc(Oc3ccc(NC(=O)N[C@H](C)c4ccc(F)cc4)c(Cl)c3)c2cc1OC [Example 6, N-{2-Chloro-4-[(6,7-dimethoxy-4-quinolyl)oxy]phenyl}-N′-[(1R)-1-(4-fluorophenyl)ethyl]urea]	6
COc1cc(Oc2ccnc3cc(OC)c(OC)cc23)ccc1NC(=O)NC(C)c1ncc(C)s1 (centres unmarked) [Example 105, N-{4-[(6,7-Dimethoxy-4-quinolyl)oxy]-2-methoxyphenyl}-N′-[1-(5-methyl-1,3-thiazol-2-yl)ethyl]urea]	12.7
COc1cc2nccc(Oc3ccc(NC(=O)NC(C)c4ncc(C)s4)c(F)c3)c2cc1OC (centres unmarked) [Example 101, N-{4-[(6,7-Dimethoxy-4-quinolyl)oxy]-2-fluorophenyl}-N′-[1-(5-methyl-1,3-thiazol-2-yl)ethyl]urea]	20.1
COc1cc2nccc(Oc3ccc(NC(=O)NC(C)c4nccs4)c(F)c3)c2cc1OC (centres unmarked) [Example 70, N-{4-[(6,7-Dimethoxy-4-quinolyl)oxy]-2-fluorophenyl}-N′-[1-(1,3-thiazol-2-yl)ethyl]urea]	3.6
COc1cc2nccc(Oc3cc(C)c(NC(=O)N[C@H](C)c4ccc(F)cc4)cc3C)c2cc1OC [Example 9, N-{4-[(6,7-Dimethoxy-4-quinolyl)oxy]-2,5-dimethylphenyl}-N′-[(1R)-1-(4-fluorophenyl)ethyl]urea]	17.4

Further compounds by falling IC50, results first:

IC50 [nM]	SMILES
128	COc1cc2nccc(Oc3ccc(NC(=O)N[C@H](C)c4cccc(Br)c4)cc3Cl)c2cc1OC [Example 57, N-[(1R)-1-(3-Bromophenyl)ethyl]-N′-{3-chloro-4-[(6,7-dimethoxy-4-quinolyl)oxy]phenyl}urea]
80.9	COc1cc2nccc(Oc3ccc(NC(=O)N[C@H](C)c4cccc(Br)c4)c(C)c3)c2cc1OC [Example 58, N-[(1R)-1-(3-Bromophenyl)ethyl]-N′-{4-[(6,7-dimethoxy-4-quinolyl)oxy]-2-methylphenyl}urea]
69.5	COc1ccc([C@@H](C)NC(=O)Nc2ccc(Oc3ccnc4cc(OC)c(OC)cc34)cc2)cc1 [Example 54, N-{4-[(6,7-Dimethoxy-4-quinolyl)oxy]phenyl}-N′-[(1R)-1-(4-methoxyphenyl)ethyl]urea]
26.5	COc1cc2nccc(Oc3cc(C)c(NC(=O)N[C@H](C)c4nccs4)cc3C)c2cc1OC [Example 87, N-{4-[(6,7-Dimethoxy-4-quinolyl)oxy]-2,5-dimethylphenyl}-N′-[(1R)-1-(1,3-thiazol-2-yl)ethyl]urea]
13.2	COc1cc2nccc(Oc3ccc(NC(=O)N[C@H](C)c4ccc(F)cc4)cc3OC)c2cc1OC [Example 24, N-{4-[(6,7-Dimethoxy-4-quinolyl)oxy]-3-methoxyphenyl}-N′-[(1R)-1-(4-fluorophenyl)ethyl]urea]
13	COc1cc2nccc(Oc3ccc(NC(=O)N[C@@H](C)c4ccc(F)cc4)c(C)c3)c2cc1OC [Example 14, N-{4-[(6,7-Dimethoxy-4-quinolyl)oxy]-2-methylphenyl}-N′-[(1S)-1-(4-fluorophenyl)ethyl]urea]
10.9	COc1cc2nccc(Oc3ccc(NC(=O)N[C@H](C)c4ccc(F)cc4)cc3Cl)c2cc1OC [Example 12, N-{3-Chloro-4-[(6,7-dimethoxy-4-quinolyl)oxy]phenyl}-N′-[(1R)-1-(4-fluorophenyl)ethyl]urea]
7.6	COc1cc2nccc(Oc3ccc(NC(=O)N[C@H](C)c4ccc(F)cc4)c(C)c3C)c2cc1OC [Example 27, N-{4-[(6,7-Dimethoxy-4-quinolyl)oxy]-2,3-dimethylphenyl}-N′-[(1R)-1-(4-fluorophenyl)ethyl]urea]
4.9	COc1cc2nccc(Oc3ccc(NC(=O)N[C@H](C)c4nccs4)c(F)c3)c2cc1OC [Example 72, N-{4-[(6,7-Dimethoxy-4-quinolyl)oxy]-2-fluorophenyl}-N′-[(1R)-1-(1,3-thiazol-2-yl)ethyl]urea]
4.7	COc1cc2nccc(Oc3ccc(NC(=O)NC(C)c4nccs4)cc3)c2cc1OC (centres unmarked) [Example 77, N-{4-[(6,7-Dimethoxy-4-quinolyl)oxy]phenyl}-N′-[1-(1,3-thiazol-2-yl)ethyl]urea]
4	COc1cc2nccc(Oc3ccc(NC(=O)NC(C)c4ccc(F)cc4)c(Cl)c3)c2cc1OC (centres unmarked) [Example 4, N-{2-Chloro-4-[(6,7-dimethoxy-4-quinolyl)oxy]phenyl}-N′-[1-(4-fluorophenyl)ethyl]urea]
2.4	COc1cc2nccc(Oc3ccc(NC(=O)NC(C)c4ccc(F)cc4)cc3)c2cc1OC (centres unmarked) [Example 1, N-{4-[(6,7-Dimethoxy-4-quinolyl)oxy]phenyl}-N′-[1-(4-fluorophenyl)ethyl]urea]
